Reference: a melting point compilation (Tetko et al.; mined from patent text by program, amines drawn as free bases though some values may be those of a salt)

With `O=c1[nH]c2ccc(Cn3ccnc3)cc2[nH]1` the melting point was 254 °C.
`O=C1CCC(c2ccc(CCCCCNC(=O)c3cccnc3)cc2)=NN1` gave a melting point of 133 to 134 °C.
`Cc1nsc2ccc(-n3c(=O)c(Cl)c(C(F)(F)F)n(C)c3=O)cc12` gave a melting point of 252 to 254 °C.
Compound `COc1cc(C(=O)Nc2c(Cl)cc3c(Br)n[nH]c3c2C(=O)NC(C)C)n(-c2ncccc2Cl)n1` has a melting point of 217 to 218 °C.
For `c1ccc2c(c1)CSc1nnnn1-2`, the melting point was 137 °C.
`COc1ccc(N2CCN(CCC3CN(C)C(=O)O3)CC2)cc1OC` (stereo not given) showed a melting point of 90 to 92 °C.
Work on `CCCCc1nc(-c2ccco2)n[nH]1` yielded a melting point of 73 to 74 °C.
For `O=C(Nc1ccc(OCCCN2CCC3(CC2)OCCO3)c2ccccc12)c1cc(F)cc(N2CCCCC2)c1`, the melting point was 70 to 72 °C.
Work on `C(=C\c1nc(COc2ccc(CCCn3nccn3)cc2)co1)/c1ccccc1` yielded a melting point of 103 to 104 °C.
In the case of `Cn1cnc2ccnc(Cl)c21`, the melting point is reported as 62 to 65 °C.
With `N#CCCn1[nH]c(C#N)c(N=Nc2ccc(S(=O)(=O)Cl)cc2)c1=O` the melting point was 178 to 180 °C.
`O=C(N[C@H](Cc1ccc(C(F)(F)F)cc1)[C@@H](O)c1ccc(F)cc1)c1ccc2c(c1)OCO2` (racemic) showed a melting point of 180 to 181 °C.
`CCOC(=O)c1cnc(Nc2ccccc2OCC)[nH]c1=O` showed a melting point of 220 to 221 °C.
Work on `CCCCN1C(=O)c2cncnc2N(C(=O)CN2CCOCC2)c2ccccc21` yielded a melting point of 127 to 128 °C.
Compound `O=C(O)C1=CCC(c2ccccc2)(c2ccccc2)CC1` has a melting point of 227 to 229 °C.
Compound `CC(C)(C)NCC(O)c1cc(F)cc(C#N)c1F` (stereo not given) has a melting point of 99 to 101 °C.
`CC(=O)OCc1ccc(-c2nc(=O)c3ccccc3s2)cn1` gave a melting point of 171 to 172 °C.
With `O=C1c2ccccc2-c2c1c1ccccc1c(=O)n2CCCCNS(=O)(=O)c1ccc(Br)cc1` the melting point was 176 to 177 °C.
For `O=C1C2CC3CC1CC(c1cc(Br)ccc1O)(C3)C2`, the melting point was 287 to 289 °C.
With `Cc1noc(NS(=O)(=O)c2ccc(F)cc2)c1Br` the melting point was 142 to 144 °C.
Work on `CS(=O)(=O)Nn1c(=O)[nH]c2cc(C(F)(F)F)c(N3CCC3)cc2c1=O` yielded a melting point of 266 to 283 °C.
`O=C(OCc1ccccc1)N1C[C@@H](O)[C@H](Oc2cccc(Cl)c2Cl)C1` (relative stereo) showed a melting point of 130 to 132 °C.
Compound `COc1ccc(Oc2c(OC)cc(N)c3nccc(C)c23)cc1` has a melting point of 185 to 187 °C.
`Oc1ccc(Nc2cnc3cc(Cl)ccc3c2)cc1` gave a melting point of 218 °C.
In the case of `Cc1c[nH]c2ccc(O)cc12`, the melting point is reported as 116 °C.
`COC(=O)CCc1oc(-c2ccc3c(c2)OCO3)nc1-c1ccc(Cl)cc1` gave a melting point of 123 to 124 °C.
With `CCOC(=O)C1CCCc2[nH]c3c(C)ccc(OC)c3c21` (stereo not given) the melting point was 119 to 122 °C.
For `COC(=O)C(Cc1ccccc1)NC(=S)Nc1nc2ccccc2s1` (racemic), the melting point was 168 to 169 °C.
In the case of `O=C(O)c1cc2nc(C(F)(F)F)ccc2n1Cc1cccc(F)c1`, the melting point is reported as 254 to 255 °C.
With `COc1ccc(NC(=N)N2CCCCC2)c(-c2ccccc2)c1` the melting point was 155 °C.
For `Cc1ccc(S(=O)(=O)N2CCCC(CCl)C2)cc1` (stereo not given), the melting point was 100 to 102 °C.
For `C1=C(c2cccc3c2ccn3Cc2ccccc2)CCN(Cc2ccccc2)C1`, the melting point was 154 °C.
`O=C(NCCCCCCCNC(=O)c1ccc(OC2CCCCC2)cc1)c1ccc(OC2CCCCC2)cc1` showed a melting point of 144 to 145 °C.
Compound `OC(CC1CCNCC1)(c1ccc(F)cc1)c1ccc(F)cc1` has a melting point of 169 to 171 °C.
`CCCCCOc1nc(Cl)nc2ccccc12` showed a melting point of 32 to 34 °C.
`CC(=O)Oc1ccccc1C(=O)C1c2ccccc2C(=O)N1CCO[N+](=O)[O-]` (stereo not given) showed a melting point of 81 to 83 °C.
For `CCOC(=O)c1sc(Oc2ccc3c(c2)OCC3)c2c1CCc1cnn(C)c1-2`, the melting point was 137 to 138 °C.
In the case of `CC1NC(=O)c2ccccc2O1` (stereo not given), the melting point is reported as 124 to 126 °C.
`O=C(NNC(=O)c1ccncc1)Nc1cccc2c1C(=O)c1c-2n[nH]c1-c1ccc(N2CCNCC2)cc1` gave a melting point of 232 °C.
In the case of `CS(=O)(=O)c1ccc(-n2cc(CC(=O)O)nc2-c2ccc(Cl)cc2)cc1`, the melting point is reported as 263 to 264 °C.
